In US6124078A, “Photo-decoloring dye, a binder resin composition containing the same and photo-recording material” (Konica Corporation, priority 1998, dated 2000):

Legend:
Type in all cases: physicochemical
[1] = Solubility of dye in binder resin composition (polyvinyl butyral / methyl ethyl ketone), precipitation after a day at 15° C.; conditions: binder resin composition: polyvinyl butyral resin (Esrex BX-1) 100 mg, methyl ethyl ketone 3.0 ml; stood a day at 15° C. shielded from light
Protocol: Mixing the following raw materials, a binder resin composition containing the photo-decoloring dye was prepared so as to obtain sample 3-1.
Photo-decoloring dye 7 0.3 mmol
Polyvinyl butyral resin (Esrex BX-1)
Methyl ethyl ketone 3.0 ml
Samples 3-2 to 3-12 were obtained in the same way in which sample 3-1 was obtained except replacing the photo-decoloring dye 7 by the following dyes described later. Solubility was evaluated by varying addition amount of each dye. The dyes except for comparative dyes show the photo-decoloring dyes according to the invention. The chemical structures of the comparative dyes A and B (these dyes are used in example 5) are shown below.
After preparing binder resin compositions in which addition amount of the photo-decoloring dyes was increased in serial turn, said binder resin compositions were aloowed to stand under the condition of shielding a light for a day at 15° C. When slight precipitation of the photo-decoloring dyes in said binder resin compositions was observed, the solubility of said photo-decoloring dyes was evaluated as unacceptable.
The solubility of the photo-decoloring dyes was evaluated based on the following criteria in response to the addition amount of said photo-decoloring dyes.
4: Precipitation was not observed in an addition amount of not less than 0.9 mmol.

[2] = Storage stability of photo-recording material (60° C., 200 hours, light-shielded); conditions: (density after storage/initial density)×100, packed with black paper
Source text: The binder resin composition containing the photo-decoloring dye used for making sample 3-1 was coated on a polyethylenenaphthalate base having thickness of 4.0 μm by using a wire bar in a coating amount of 2.5 g/m^2 after drying so as to obtain a photo-recording material consisting of a photo-decoloring layer on the polyethylenenaphthalate film. On a back side of said polyethylenenaphthalate base was coated a nitrocellulose layer containing a silicone modified urethane resin (SP-2105, produced by Dainichiseika Co., Ltd.) as a sticking-preventing layer. Thus obtained sample is termed sample 4-1.
By replacing the photo-decoloring dye 7 used in sample 4-1 by such photo-decoloring dyes as described later, sample 4-2 to 4-16 were obtained. Both photo-decoloring ability and storage stability of these dyes were evaluated.
Photo-shielded samples by packing them with black paper were allowed to stand at 60° C. in a thermostatic oven for 200 hours. Storage stability was indicated as follows.
Storage stability=(density after storage/initial density)×100 (%)

[3] = Absorption maximum and absorption coefficient in ethyl acetate

Row | SMILES | Storage stability [2] [%] | εmax [3] | λmax [3] [nm] | Solubility [1]
1 | CCN(CC)c1ccc(N=C2C=CC(=O)c3ccccc32)cc1 [E] | 85 | – | – | –
2 | CCCCc1nnc2n1N=C(C(C)(C)C)C2=Nc1ccc(O)cc1 [A] | 18 | – | – | 2 (Slight precipitation was observed in an addition amount of not less than 0.3 to less than 0.6 mmol.)
3 | CCN(CC)c1ccc(N=C2C(=O)N(c3ccccc3)N=C2C)cc1 [D] | 80 | – | – | –
4 | CCN(CC)c1ccc(N=C(C(C)=O)C(=O)Nc2ccccc2)c(C)c1 [C] | 95 | – | – | –
5 | CCCCCCCCCCCCOc1ccc(S(=O)(=O)NCC(C)(C)c2nnc3n2N=C(C(C)(C)C)C3=Nc2cc(Cl)c(O)c(Cl)c2)cc1 [compound 13] | 75 | – | – | 3 (Slight precipitation was observed in an addition amount of not less than 0.6 to less than 0.9 mmol.)
6 | CCC(Oc1ccc(C(C)(C)CC)cc1C(C)(C)CC)C(=O)NCCC(C)c1nnc2n1N=C(C(C)(C)C)C2=Nc1cc(Cl)c(O)c(Cl)c1 (stereo not drawn) [compound 11] | 80 | – | – | 4 (Precipitation was not observed in an addition amount of not less than 0.9 mmol.)
7 | CCCCCCCCCCCCS(=O)(=O)CCCc1nnc2n1N=C(C(C)(C)C)C2=Nc1cc(Cl)c(O)c(Cl)c1 [compound 7] | 88 | 93700 | 556 | 4 (Precipitation was not observed in an addition amount of not less than 0.9 mmol.)
8 | CN1/C(=C\C=C\C2=[N+](C)c3ccccc3C2(C)C)C(C)(C)c2ccccc21 [F] | 15 | – | – | –
9 | CCCCc1nnc2c(=Cc3cc(Cl)c(O)c(Cl)c3)c(C(C)(C)C)nn12 [B] | 20 | – | – | 2 (Slight precipitation was observed in an addition amount of not less than 0.3 to less than 0.6 mmol.)

Further lines, with some results ahead:

Row | Storage stability [2] [%] | εmax [3] | λmax [3] [nm] | SMILES | Solubility [1]
10 | 82 | – | – | CCCCCCCCCCCCS(=O)(=O)NCCc1nc2c(=Cc3cc(Cl)c(O)c(Cl)c3)c(C(C)(C)C)nn2n1 [compound 47] | 4 (Precipitation was not observed in an addition amount of not less than 0.9 mmol.)
11 | 85 | – | – | CCCCCCCCCCCCC(Oc1ccc(OC(C)=O)c(C(C)(C)C)c1)C(=O)NCCc1nnc2n1N=C(C)C2=Nc1cc(Cl)c(O)c(Cl)c1 (stereo not drawn) [compound 17] | 4 (Precipitation was not observed in an addition amount of not less than 0.9 mmol.)
12 | 90 | – | – | CCCCC(Oc1ccc(C(C)(C)CC)cc1C(C)(C)CC)C(=O)Nc1ccc2nc3n(c2c1)N=C(C)C3=Nc1cc(Cl)c(O)c(Cl)c1 (stereo not drawn) [compound 32] | 3 (Slight precipitation was observed in an addition amount of not less than 0.6 to less than 0.9 mmol.)
13 | 77 | – | – | CCC(C)(C)c1ccc(OCC(=O)Nc2ccnc(-c3cnc4n3N=C(C(C)(C)C)C4=Nc3cc(Cl)c(O)c(Cl)c3)c2)c(C(C)(C)CC)c1 [compound 33] | 4 (Precipitation was not observed in an addition amount of not less than 0.9 mmol.)
14 | – | 94800 | 543 | CCCCCCCCCCCCS(=O)(=O)CCCc1nnc2c(=Cc3cc(Cl)c(O)c(Cl)c3)c(C(C)(C)C)nn12 [compound 78] | –
15 | 80 | 105300 | 540 | CCCCCCCCCCCCS(=O)(=O)CCCc1nnc2c(=Cc3cc(Cl)c(O)c(Cl)c3)c(C(C)(C)C)nn12 [compound 58] | 4 (Precipitation was not observed in an addition amount of not less than 0.9 mmol.)
